Experimental data published in ChEMBL document CHEMBL2073775, “Caco-2 permeability, P-glycoprotein transport ratios and brain penetration of heterocyclic drugs” (Int J Pharm, 2003).

Each compound was assayed against ATP-dependent translocase ABCB1 (Homo sapiens, UniProt P08183) (assay: TP_TRANSPORTER: transepithelial transport in Caco-2 cells).
Type: functional, cell-based

Sequence of ATP-dependent translocase ABCB1 (P08183 whole entry): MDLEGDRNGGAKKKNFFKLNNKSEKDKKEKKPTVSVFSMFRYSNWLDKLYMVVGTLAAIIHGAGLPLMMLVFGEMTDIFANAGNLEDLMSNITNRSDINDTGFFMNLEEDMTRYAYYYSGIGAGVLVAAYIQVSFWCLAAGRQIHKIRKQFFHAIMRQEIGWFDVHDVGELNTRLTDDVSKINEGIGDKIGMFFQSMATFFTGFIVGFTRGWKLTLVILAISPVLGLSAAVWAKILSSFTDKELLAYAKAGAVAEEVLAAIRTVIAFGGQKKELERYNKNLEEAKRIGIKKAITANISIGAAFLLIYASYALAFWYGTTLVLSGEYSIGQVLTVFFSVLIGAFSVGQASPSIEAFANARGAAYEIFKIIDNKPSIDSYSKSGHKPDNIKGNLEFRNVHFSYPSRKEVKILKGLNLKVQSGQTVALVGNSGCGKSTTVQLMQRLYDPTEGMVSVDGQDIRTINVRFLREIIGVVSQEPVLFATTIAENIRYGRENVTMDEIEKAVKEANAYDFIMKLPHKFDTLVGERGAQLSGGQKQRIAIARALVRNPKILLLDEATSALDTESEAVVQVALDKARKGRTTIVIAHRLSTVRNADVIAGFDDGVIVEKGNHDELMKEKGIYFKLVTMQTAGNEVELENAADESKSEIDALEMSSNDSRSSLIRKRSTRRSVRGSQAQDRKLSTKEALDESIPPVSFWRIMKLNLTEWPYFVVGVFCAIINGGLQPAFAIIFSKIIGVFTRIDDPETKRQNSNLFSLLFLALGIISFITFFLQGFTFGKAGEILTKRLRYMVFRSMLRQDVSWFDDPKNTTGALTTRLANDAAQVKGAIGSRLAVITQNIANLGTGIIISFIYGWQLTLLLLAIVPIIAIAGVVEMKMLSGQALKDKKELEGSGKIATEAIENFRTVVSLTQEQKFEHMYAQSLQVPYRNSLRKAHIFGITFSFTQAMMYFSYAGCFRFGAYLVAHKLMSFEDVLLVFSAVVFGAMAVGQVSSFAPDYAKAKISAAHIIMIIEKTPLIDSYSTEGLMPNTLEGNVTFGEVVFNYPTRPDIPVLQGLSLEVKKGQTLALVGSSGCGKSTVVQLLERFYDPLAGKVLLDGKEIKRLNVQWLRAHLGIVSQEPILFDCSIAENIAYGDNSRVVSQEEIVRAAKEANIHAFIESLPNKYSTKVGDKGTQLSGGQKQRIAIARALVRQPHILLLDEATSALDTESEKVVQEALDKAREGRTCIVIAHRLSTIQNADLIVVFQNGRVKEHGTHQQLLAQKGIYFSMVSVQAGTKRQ

Activity | Compound
is not a substrate [-] | CC(=O)Nc1ccc(O)cc1 [ACETAMINOPHEN]
is not a substrate [-] | PEG 4000
substrate [+] | C=CCC(N)c1ccccc1-c1noc2ccccc12.Cl (single isomer, unassigned; (-))
is not a substrate [-] | OC[C@@H](O)[C@@H](O)[C@H](O)[C@H](O)CO [MANNITOL]
substrate [+] | CN1CC2c3ccccc3Oc3ccc(Cl)cc3C2C1.O=C(O)/C=C\C(=O)O (racemic) [ASENAPINE MALEATE]
is not a substrate [-] | NC(=O)N1c2ccccc2C=Cc2ccccc21 [CARBAMAZEPINE]
is not a substrate [-] | CC(C)Cc1ccc(C(C)C(=O)O)cc1 (configuration not stated) [IBUPROFEN]
is not a substrate [-] | CC(=O)Oc1ccccc1C(=O)O [ASPIRIN]
is not a substrate [-] | COc1ccc2c(c1)c(CC(=O)O)c(C)n2C(=O)c1ccc(Cl)cc1 [INDOMETHACIN]
substrate [+] | Clc1cccc(Cl)c1N=C1NCCN1 [CLONIDINE]
substrate [+] | CC1(C)CC(=O)N(CCCCN2CCN(c3ncccn3)CC2)C(=O)C1.Cl [GEPIRONE HYDROCHLORIDE]
is not a substrate [-] | CNC(=C[N+](=O)[O-])NCCSCc1ccc(CN(C)C)o1 [RANITIDINE]

Continued, compound first:

Compound | Activity
COc1cc2cc(C3=NNC(=O)CC3C)sc2cc1OC (configuration not stated) | is not a substrate [-]
O=C(O)c1ccccc1O [SALICYLIC ACID] | is not a substrate [-]
Cc1nc2n(c(=O)c1CCN1CCC(c3noc4cc(F)ccc34)CC1)CCCC2 [RISPERIDONE] | substrate [+]
O=C(O)/C=C/C(=O)O.O=C1CCCN1CCCCN1CCN(c2cc(C(F)(F)F)ccn2)CC1 | substrate [+]
CC1(C)CC(=O)N(CCCCN2CCN(c3ncccn3)CC2)C(=O)C1O.Cl (configuration not stated) | substrate [+]
CN1CCC(=C(c2ccc(F)cc2)c2cc(Cl)cs2)CC1 | substrate [+]
CS(=O)(=O)O.O=C(CCCN1CCC(=C(c2ccc(F)cc2)c2ccc(F)cc2)CC1)N1CCCC1 | substrate [+]
Cl.FC(F)(F)c1ccc(N2CCNCC2)nc1Cl | substrate [+]
CN(C)CCC=C1c2ccccc2CCc2ccccc21 [AMITRIPTYLINE] | substrate [+]
Cc1cc(=O)n(-c2ccccc2)n1C [ANTIPYRINE] | is not a substrate [-]
